Test results taken from patent publication US9593144B2, “FPR1 antagonist derivatives and use thereof” (CHANG GUNG UNIVERSITY, priority 2014, dated 2017).
Where two headings read alike, the source gives them in different places. Square brackets hold non-standard residues; d marks the D form. Peptide text beside a SMILES is read from it. * marks the point of attachment. dPhe(4-NO2) = N[C@H](Cc1ccc([N+](=O)[O-])cc1)C(=O)O; Trp(5-OH) = N[C@@H](Cc1c[nH]c2ccc(O)cc12)C(=O)O; dPhe(4-Cl) = N[C@H](Cc1ccc(Cl)cc1)C(=O)O; Hydrocinnamoyl = O=C(CCc1ccccc1)*; Nicotinoyl = O=C(c1cccnc1)*; Bz = O=C(c1ccccc1)*

Assays:
human neutrophils [1] = assay: cells; type: cell-based; details: for IC50: mean ± SEM
Method: Degranulation of azurophilic granules was determined by elastase release as described above. Experiments were performed using MeO-Suc-[…]-nitroanilide as the elastase substrate. […] Results are expressed as the percentage of elastase release in the drug-free control group, DMSO. Tables 5 and 6 explore whether there is an anti-inflamatory effect in the dipeptide derivatives. Because ferricytochrome c cannot penetrate cell membranes, it reacts with superoxide anion extracellularly. Also, there are absorptive reactions at 550 nm, and differences among the absorptive reactions can be used to evaluate the influence on the release of superoxide anion. The elastase is released by degranulation as the neutrophil is activated. Tables 5 and 6 use the substrate, MeO-Suc-[…]-nitroanilide, with the specificity for reacting with the elastase so as to evaluate the influence of the candidate compound on the elastase release. Blood was taken from healthy human donors (20-32 years old) by venipuncture, following a protocol approved by the Institutional Review Board at Chang Gung Memorial Hospital. Neutrophils were isolated by a standard method of dextran sedimentation prior to centrifugation in a Ficoll Hypaque gradient and the hypotonic lysis of erythrocytes. […] The degranulation of azurophilic granules was determined by elastase release as described above. Experiments were performed using MeO-Suc-[…]-nitroanilide as the elastase substrate. Briefly, after supplementation with MeO-Suc-[…]-nitroanilide ([…] neutrophils (6×10^5 ml^-1) were equilibrated at 37° C. for 2 min and incubated with drugs for 5 min. […] The results are expressed as the percentage of elastase release in the drug-free control group.

human neutrophils [2] = assay: cells; type: cell-based; details: for IC50: mean ± SEM; remark: listed apart in the source
Description: Tables 5 and 6 explore whether there is an anti-inflamatory effect in the dipeptide derivatives. Because ferricytochrome c cannot penetrate cell membranes, it reacts with superoxide anion extracellularly. Also, there are absorptive reactions at 550 nm, and differences among the absorptive reactions can be used to evaluate the influence on the release of superoxide anion. The elastase is released by degranulation as the neutrophil is activated. Tables 5 and 6 use the substrate, MeO-Suc-Ala-Ala-Pro-Val-p-nitroanilide, with the specificity for reacting with the elastase so as to evaluate the influence of the candidate compound on the elastase release.
Blood was taken from healthy human donors (20-32 years old) by venipuncture, following a protocol approved by the Institutional Review Board at Chang Gung Memorial Hospital. Neutrophils were isolated by a standard method of dextran sedimentation prior to centrifugation in a Ficoll Hypaque gradient and the hypotonic lysis of erythrocytes.
The evaluation of O2.^− generation was based on the SOD-inhibitable reduction of ferricytochrome c. In brief, after supplementation with 0.5 mg ml^−1 ferricytochrome c and 1 mM Ca^2+, neutrophils were equilibrated at 37° C. for 2 min and incubated with drugs […].

[3] = fMLP/CB, n = 3, Table 1, read-out: Anti-inflammation NE release (IC50)
[4] = human neutrophils, fMLP/CB, n = 3, Table 1, read-out: Anti-inflammation O2•− generation (IC50)
[5] = Neutrophil, fMLP/CB, n = 3, Table 1, read-out: Anti-inflammation NE release (IC50)
[6] = Neutrophil, human neutrophils, fMLP/CB, n = 3, Table 1, read-out: Anti-inflammation O2•− generation (IC50)
[7] = fMLP/CB, n = 3, Table 3, read-out: Anti-inflammation NE release (IC50)
[8] = human neutrophils, fMLP/CB, n = 3, Table 3, read-out: Anti-inflammation O2•− generation (IC50)
[9] = Neutrophil, fMLP/CB, n = 3, Table 3, read-out: Anti-inflammation NE release (IC50)
[10] = Neutrophil, human neutrophils, fMLP/CB, n = 3, Table 3, read-out: Anti-inflammation O2•− generation (IC50)
[11] = fMLP/CB, n = 3, Table 2, read-out: Anti-inflammation NE release (IC50)
[12] = human neutrophils, fMLP/CB, n = 3, Table 2, read-out: Anti-inflammation O2•− generation (IC50)

COC(=O)[C@@H](Cc1ccccc1)NC(=O)[C@H](Cc1c[nH]c2ccccc12)NC(=O)c1cccnc1 [Compound 15a, N—(N-nicotinoyl-L-tryptophanyl)-D-phenylalanine methyl esters] (Nicotinoyl-Trp-[dF]-OMe)
IC50 (human neutrophils [1]; [3]): > 30 µM
IC50 (human neutrophils [2]; [4]): 13.1 ± 0.5 µM

COC(=O)[C@@H](Cc1ccccc1)NC(=O)[C@H](Cc1c[nH]c2ccccc12)NC(=O)c1ccc(Cl)cc1 [Compound 5, N—(N-4-Chlorobenzoyl-L-tryptophanyl)-D-phenylalanine methyl ester]
IC50 (human neutrophils [1]; [5]): 10.4 ± 4.61 µM
IC50 (human neutrophils [2]; [6]): > 30 µM
melting point: 191 to 193 °C

COC(=O)[C@@H](Cc1ccccc1)NC(=O)[C@H](Cc1c[nH]c2ccccc12)NC(=O)CCc1ccccc1 [Compound 9, N—(N-Phenylpropanoyl-L-tryptophanyl)-D-phenylalanine methyl ester] (Hydrocinnamoyl-Trp-[dF]-OMe)
IC50 (human neutrophils [1]; [5]): 12.5 ± 4.87 µM
IC50 (human neutrophils [2]; [6]): 10.1 ± 3.05 µM
melting point: 159 to 161 °C

COC(=O)[C@@H](Cc1ccccc1)NC(=O)[C@H](Cc1c[nH]c2ccc(O)cc12)NC(=O)c1ccccc1 [Compound 11a, N—(N-Benzoyl-5-hydroxy-L-tryptophanyl)-D-phenylalanine methyl esters] (Bz-[Trp(5-OH)]-[dF]-OMe)
IC50 (human neutrophils [1]; [3]): 9.11 ± 0.76 µM
IC50 (human neutrophils [2]; [4]): 8.81 ± 1.22 µM

N#CCNC(=O)[C@@H](Cc1ccccc1)NC(=O)[C@H](Cc1c[nH]c2ccccc12)NC(=O)c1ccccc1 [Compound 27b, N—(N-benzoyl-L-tryptophanyl)-D-phenylalanine-glycine-nitriles]
IC50 (human neutrophils [1]; WKYMVm, n = 4 or 8, Table 6, read-out: Elastase release WKYMVm IC50): 6.65 ± 0.23 µM
Elastase release fMLF Inh % (human neutrophils [1]; fMLF, inhibitory percentage under 10 μM, Table 6, listed as HCH 90-2-1): 18.66 ± 0.7 %
IC50 (human neutrophils [1]; [7]): 14.5 ± 2.87 µM
Superoxide anion WKYMVm Inh % (human neutrophils [2]; WKYMVm, inhibitory percentage under 10 μM, Table 5, listed as HCH 90-2-1): 18.66 ± 0.7 %
Superoxide anion fMLF Inh % (human neutrophils [2]; human neutrophils, fMLF, inhibitory percentage under 10 μM, Table 5): 34.61 ± 4.1 %
IC50 (human neutrophils [2]; [8]): 10.5 ± 4.23 µM

COC(=O)[C@@H](Cc1ccccc1)NC(=O)[C@H](Cc1c[nH]c2ccccc12)NC(=O)c1cccnc1 [Compound 15b, N—(N-nicotinoyl-L-tryptophanyl)-D-phenylalanine methyl esters] (Nicotinoyl-Trp-[dF]-OMe)
IC50 (human neutrophils [1]; [3]): > 30 µM
IC50 (human neutrophils [2]; [4]): > 30 µM

O=C(N[C@@H](Cc1c[nH]c2ccccc12)C(=O)N[C@@H](CO)Cc1ccccc1)c1ccccc1 [Compound 13a, N—(N-Benzoyl-L-tryptophanyl)-D-phenylalaninol]
IC50 (human neutrophils [1]; [9]): > 30 µM
IC50 (human neutrophils [2]; [10]): > 30 µM
melting point: 151 to 153 °C

COC(=O)[C@@H](Cc1ccccc1)NC(=O)[C@H](Cc1c[nH]c2ccccc12)NC(=O)c1ccc(F)cc1 [Compound 4, N—(N-4-Fluorobenzoyl-L-tryptophanyl)-D-phenylalanine methyl ester]
IC50 (human neutrophils [1]; [5]): > 30 µM
IC50 (human neutrophils [2]; [6]): > 30 µM
melting point: 191 to 193 °C

O=C(N[C@@H](Cc1c[nH]c2ccccc12)C(=O)N[C@@H](CO)Cc1cccc(O)c1)c1ccccc1 [Compound 12a, N—(N-Benzoyl-L-tryptophanyl)-5-hydroxy-D-phenylalaninol]
IC50 (human neutrophils [1]; [9]): > 30 µM
IC50 (human neutrophils [2]; [10]): > 30 µM

COC(=O)[C@@H](Cc1ccccc1)NC(=O)[C@H](Cc1c[nH]c2ccccc12)NC(=O)c1ccc(C)cc1 [Compound 6, N—(N-4-Methylbenzoyl-L-tryptophanyl)-D-phenylalanine methyl ester]
IC50 (human neutrophils [1]; Neutrophil, WKYMVm, n = 4 or 8, Table 6, read-out: Elastase release WKYMVm IC50): 1.96 ± 0.11 µM
IC50 (human neutrophils [1]; Neutrophil, WKYMVm/CB, n = 3, Table 4, read-out: WKYMVm/CB NE release (IC50)): 1.96 ± 0.11 µM
IC50 (human neutrophils [1]; Neutrophil, fMLF, n = 4 or 8, Table 6, read-out: Elastase release fMLF IC50): 2.47 ± 0.25 µM
IC50 (human neutrophils [1]; Neutrophil, fMLF/CB, n = 3, Table 4, read-out: fMLF/CB NE release (IC50)): 2.47 ± 0.25 µM
IC50 (human neutrophils [1]; [5]): 2.47 ± 0.25 µM
IC50 (human neutrophils [2]; Neutrophil, WKYMVm, n = 4 or 8, Table 5, read-out: Superoxide anion WKYMVm IC50): 6.55 ± 0.59 µM
IC50 (human neutrophils [2]; Neutrophil, WKYMVm/CB, n = 3, Table 4, read-out: WKYMVm/CB O2•− generation (IC50)): 6.55 ± 0.59 µM
IC50 (human neutrophils [2]; Neutrophil, human neutrophils, fMLF/CB, n = 3, Table 4, read-out: fMLF/CB O2•− generation (IC50)): 1.88 ± 0.29 µM
IC50 (human neutrophils [2]; Neutrophil, human neutrophils, fMLF, n = 4 or 8, Table 5, read-out: Superoxide anion fMLF IC50): 1.88 ± 0.29 µM
IC50 (human neutrophils [2]; [6]): 1.88 ± 0.29 µM
melting point: 169 to 171 °C

COC(=O)[C@@H](Cc1ccc(Cl)cc1)NC(=O)[C@H](Cc1c[nH]c2ccccc12)NC(=O)c1ccccc1 [Compound 21b, N—(N-Benzoyl-L-tryptophanyl)-para-chloro-D-phenylalanine methyl esters] (Bz-Trp-[dPhe(4-Cl)]-OMe)
IC50 (human neutrophils [1]; [11]): 12.4 ± 3.53 µM
IC50 (human neutrophils [2]; [12]): 5.26 ± 0.84 µM

COC(=O)[C@@H](Cc1ccc([N+](=O)[O-])cc1)NC(=O)[C@H](Cc1c[nH]c2ccccc12)NC(=O)c1ccccc1 [Compound 18a, N—(N-Benzoyl-L-tryptophanyl)-para-nitro-D-phenylalanine methyl esters] (Bz-Trp-[dPhe(4-NO2)]-OMe)
IC50 (human neutrophils [1]; [11]): 11.2 ± 0.46 µM
IC50 (human neutrophils [2]; [12]): 19 ± 2.7 µM

COC(=O)[C@@H](Cc1ccc(Cl)cc1)NC(=O)[C@H](Cc1c[nH]c2ccccc12)NC(=O)c1ccccc1 [Compound 21a, N—(N-Benzoyl-L-tryptophanyl)-para-chloro-D-phenylalanine methyl esters] (Bz-Trp-[dPhe(4-Cl)]-OMe)
IC50 (human neutrophils [1]; [11]): 4.31 ± 0.52 µM
IC50 (human neutrophils [2]; [12]): 4.41 ± 0.27 µM

C/C=C/C[C@@H](C)[C@@H](O)[C@H]1C(=O)N[C@@H](CC)C(=O)N(C)CC(=O)N(C)[C@@H](CC(C)C)C(=O)N[C@@H](C(C)C)C(=O)N(C)[C@@H](CC(C)C)C(=O)N[C@@H](C)C(=O)N[C@H](C)C(=O)N(C)[C@@H](CC(C)C)C(=O)N(C)[C@@H](CC(C)C)C(=O)N(C)[C@H](C(C)C)C(=O)N1C [CycH, Cyclosporin H, reference compound]
IC50 (human neutrophils [1]; WKYMVm/CB, n = 3, Table 4, read-out: WKYMVm/CB NE release (IC50)): 0.17 ± 0.01 µM

CC(C)(C)C(=O)Oc1ccc(S(=O)(=O)Nc2ccccc2C(=O)NCC(=O)O)cc1 [Sivelestat, reference compound]
IC50 (human neutrophils [1]; [5]): 0.046 ± 0.02 µM

COC(=O)[C@@H](Cc1ccccc1)NC(=O)[C@H](Cc1c[nH]c2ccc(O)cc12)NC(=O)c1ccccc1 [Compound 11b, N—(N-Benzoyl-5-hydroxy-L-tryptophanyl)-D-phenylalanine methyl esters] (Bz-[Trp(5-OH)]-[dF]-OMe)
IC50 (human neutrophils [1]; [3]): 22.1 ± 4.96 µM
IC50 (human neutrophils [2]; [4]): 18.7 ± 4.02 µM

COC(=O)[C@@H](Cc1ccc([N+](=O)[O-])cc1)NC(=O)[C@H](Cc1c[nH]c2ccccc12)NC(=O)c1ccccc1 [Compound 18b, N—(N-Benzoyl-L-tryptophanyl)-para-nitro-D-phenylalanine methyl esters] (Bz-Trp-[dPhe(4-NO2)]-OMe)
IC50 (human neutrophils [1]; [11]): 15.4 ± 0.54 µM
IC50 (human neutrophils [2]; [12]): 13.1 ± 0.4 µM

N#CCNC(=O)[C@@H](Cc1ccccc1)NC(=O)[C@H](Cc1c[nH]c2ccccc12)NC(=O)c1ccccc1 [Compound 27a, N—(N-benzoyl-L-tryptophanyl)-D-phenylalanine-glycine-nitriles]
Elastase release WKYMVm Inh % (human neutrophils [1]; WKYMVm, inhibitory percentage under 10 μM, Table 6): 35.9 ± 0.8 %
Elastase release fMLF Inh % (human neutrophils [1]; fMLF, inhibitory percentage under 10 μM, Table 6, listed as HCH 90-2-2): 28.79 ± 2.6 %
IC50 (human neutrophils [1]; [7]): 4.69 ± 0.8 µM
Superoxide anion WKYMVm Inh % (human neutrophils [2]; WKYMVm, inhibitory percentage under 10 μM, Table 5, listed as HCH 90-2-2): 28.79 ± 2.6 %
IC50 (human neutrophils [2]; human neutrophils, fMLF, n = 4 or 8, Table 5, read-out: Superoxide anion fMLF IC50): 6.23 ± 1.05 µM
IC50 (human neutrophils [2]; [8]): 4.23 ± 2.44 µM
